Results published in the supplement of paper PMC10307832.

Tests used:
Assay in all cases: relative viability (nuclei count vs DMSO), 5 days (fraction); higher = more cells survive
KIN001-266 + Navitoclax = compound: CCN1CCC(CC1)N2C=C(N=N2)CNC3=CC4=C(C(=CN=C4C(=C3)Cl)C#N)NC5=CC(=C(C=C5)F)Cl [KIN001-266] + CC1(C)CCC(c2ccc(Cl)cc2)=C(CN2CCN(c3ccc(C(=O)NS(=O)(=O)c4ccc(N[C@H](CCN5CCOCC5)CSc5ccccc5)c(S(=O)(=O)C(F)(F)F)c4)cc3)CC2)C1 [Navitoclax] (partner 0.5 µM)
Procedure, shortened: (§1)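 Five library-drug doses in √10 steps were combined with a fixed anchor-drug dose, or a single drug was given alone, by pin tool to lung cancer cell lines in 1536-well plates the day after seeding. Nuclei were stained and counted after 5 days. Relative viability is the nuclei count in treated wells over that in vehicle wells, taken as the median of duplicate plates.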

KIN001-266 + Tozasertib = compound: CCN1CCC(CC1)N2C=C(N=N2)CNC3=CC4=C(C(=CN=C4C(=C3)Cl)C#N)NC5=CC(=C(C=C5)F)Cl [KIN001-266] + Cc1cc(Nc2cc(N3CCN(C)CC3)nc(Sc3ccc(NC(=O)C4CC4)cc3)n2)n[nH]1 [Tozasertib] (partner 0.1 µM)
Procedure, shortened: as §1

KIN001-266 + Crizotinib = compound: CCN1CCC(CC1)N2C=C(N=N2)CNC3=CC4=C(C(=CN=C4C(=C3)Cl)C#N)NC5=CC(=C(C=C5)F)Cl [KIN001-266] + C[C@@H](Oc1cc(-c2cnn(C3CCNCC3)c2)cnc1N)c1c(Cl)ccc(F)c1Cl [Crizotinib] (partner 1 µM)
Procedure, shortened: as §1

KIN001-266 + Vorinostat = compound: CCN1CCC(CC1)N2C=C(N=N2)CNC3=CC4=C(C(=CN=C4C(=C3)Cl)C#N)NC5=CC(=C(C=C5)F)Cl [KIN001-266] + O=C(CCCCCCC(=O)Nc1ccccc1)NO [Vorinostat] (partner 1 µM)
Procedure, shortened: as §1

Cell Line	relative viability (KIN001-266 + Navitoclax; first compound 0.08 µM)	relative viability (KIN001-266 + Navitoclax; first compound 0.253 µM)	relative viability (KIN001-266 + Navitoclax; first compound 0.8 µM)	relative viability (KIN001-266 + Navitoclax; first compound 2.53 µM)	relative viability (KIN001-266 + Navitoclax; first compound 8 µM)	relative viability (KIN001-266 + Tozasertib; first compound 0.08 µM)	relative viability (KIN001-266 + Tozasertib; first compound 0.253 µM)	relative viability (KIN001-266 + Tozasertib; first compound 0.8 µM)	relative viability (KIN001-266 + Tozasertib; first compound 2.53 µM)	relative viability (KIN001-266 + Tozasertib; first compound 8 µM)	relative viability (KIN001-266 + Crizotinib; first compound 0.08 µM)	relative viability (KIN001-266 + Crizotinib; first compound 0.253 µM)	relative viability (KIN001-266 + Crizotinib; first compound 0.8 µM)	relative viability (KIN001-266 + Crizotinib; first compound 2.53 µM)	relative viability (KIN001-266 + Crizotinib; first compound 8 µM)	relative viability (KIN001-266 + Vorinostat; first compound 0.08 µM)	relative viability (KIN001-266 + Vorinostat; first compound 0.253 µM)	relative viability (KIN001-266 + Vorinostat; first compound 0.8 µM)	relative viability (KIN001-266 + Vorinostat; first compound 2.53 µM)	relative viability (KIN001-266 + Vorinostat; first compound 8 µM)
NCI-H2087	1.17	0.93	0.916	0.97	0.56	0.206	0.246	0.23	0.175	0.155	0.699	0.81	0.604	0.786	0.532	0.455	0.776	0.965	0.898	0.594
LU99A	0.917	0.749	0.735	0.752	0.569	0.282	0.29	0.259	0.21	0.191	0.662	0.519	0.515	0.55	0.522	0.484	0.591	0.467	0.459	0.539
HCC-366	0.923	1.05	1.07	1.11	1.12	0.156	0.286	0.0999	0.127	0.111	0.52	0.514	0.478	0.482	0.5	0.436	0.338	0.294	0.373	0.443
EKVX	1.08	0.822	0.925	0.975	0.876	0.319	0.376	0.374	0.392	0.409	0.893	0.933	0.894	0.899	0.894	0.663	0.671	0.757	0.735	0.678
NCI-H522	–	–	–	–	–	0.562	0.498	0.566	0.502	0.594	–	–	–	–	–	0.936	0.887	0.876	0.979	0.943
NCI-H1755	1.01	0.985	0.981	0.992	0.799	0.629	0.541	0.583	0.525	0.522	0.942	0.798	0.836	0.826	0.718	0.726	0.75	0.7	0.691	0.763
NCI-H647	1.07	1.28	1.19	1.15	1.13	0.277	0.213	0.265	0.352	0.156	1.1	1.1	1.05	1.15	0.825	0.562	0.631	0.921	0.761	0.508
LC-2-ad	0.763	0.429	0.473	0.415	0.479	0.451	0.409	0.516	0.444	0.447	0.43	0.546	0.377	0.447	0.429	0.644	0.721	0.655	0.788	0.704
NCI-H1793	0.516	0.491	0.401	0.388	0.429	0.325	0.416	0.303	0.323	0.272	–	–	–	–	–	0.887	0.738	–	0.723	0.555
